What was measured:
Test in all cases: full kinase panel biochemical assay
ABL2/ARG = ABL2/ARG (Homo sapiens, UniProt P42684); conditions: single concentration of 1 μM; read-out: percent inhibition of ABL2/ARG
Experimental: (§1) In order to measure the protein kinase inhibitory activity (% inhibition) of the compound of the present invention, biochemical assay was performed in the full kinase panel. As a test compound, Compound No. 4 was used. The percent inhibition of each kinase when treated with the test compound at a single concentration of 1 μM was measured, and the residual enzyme activity values (%) of the kinases were calculated. Kinases whose calculated residual enzyme activity values (%) was 30% or less (i.e., kinases inhibited by 70% or more) are as follows: ABL1, ABL2/ARG, ACK1, ARAF, BLK, BMX/ETK, BRAF, BRK, BTK, c-Kit, c-Src, CSK, DDR1, DDR2, EPHA1, EPHA2, EPHA3, EPHA4, EPHA5, EPHA6, EPHA7, EPHA8, EPHB1, EPHB2, EPHB3, EPHB4, ERBB2/HER2, ERBB4/HER4, FGFR1, FGFR2, FGFR3, FGR, FLT1/VEGFR1, FLT4/VEGFR3, FMS, FRK/PTK5, FYN, GCK/MAP4K2, HCK, HGK/MAP4K4, JAK1, JAK2, KDR/VEGFR2, KHS/MAP4K5, LCK, LYN, LYN B, MEKK1, MLK4, MYLK3, NEK5, P38a/MAPK14, P38b/MAPK11, PDGFRa, PDGFRb, PEAK1, RET, RIPK2, RIPK4, SIK2, SRPK1, TAOK3/JIK, TLK1, TNK1, TXK, TYK2, YES/YES1, YSK4/MAP3K19, and ZAK/MLTK.

ACK1 = ACK1 (Homo sapiens, UniProt Q07912); conditions: single concentration of 1 μM; read-out: percent inhibition of ACK1
Chain of ACK1 (Q07912 whole entry): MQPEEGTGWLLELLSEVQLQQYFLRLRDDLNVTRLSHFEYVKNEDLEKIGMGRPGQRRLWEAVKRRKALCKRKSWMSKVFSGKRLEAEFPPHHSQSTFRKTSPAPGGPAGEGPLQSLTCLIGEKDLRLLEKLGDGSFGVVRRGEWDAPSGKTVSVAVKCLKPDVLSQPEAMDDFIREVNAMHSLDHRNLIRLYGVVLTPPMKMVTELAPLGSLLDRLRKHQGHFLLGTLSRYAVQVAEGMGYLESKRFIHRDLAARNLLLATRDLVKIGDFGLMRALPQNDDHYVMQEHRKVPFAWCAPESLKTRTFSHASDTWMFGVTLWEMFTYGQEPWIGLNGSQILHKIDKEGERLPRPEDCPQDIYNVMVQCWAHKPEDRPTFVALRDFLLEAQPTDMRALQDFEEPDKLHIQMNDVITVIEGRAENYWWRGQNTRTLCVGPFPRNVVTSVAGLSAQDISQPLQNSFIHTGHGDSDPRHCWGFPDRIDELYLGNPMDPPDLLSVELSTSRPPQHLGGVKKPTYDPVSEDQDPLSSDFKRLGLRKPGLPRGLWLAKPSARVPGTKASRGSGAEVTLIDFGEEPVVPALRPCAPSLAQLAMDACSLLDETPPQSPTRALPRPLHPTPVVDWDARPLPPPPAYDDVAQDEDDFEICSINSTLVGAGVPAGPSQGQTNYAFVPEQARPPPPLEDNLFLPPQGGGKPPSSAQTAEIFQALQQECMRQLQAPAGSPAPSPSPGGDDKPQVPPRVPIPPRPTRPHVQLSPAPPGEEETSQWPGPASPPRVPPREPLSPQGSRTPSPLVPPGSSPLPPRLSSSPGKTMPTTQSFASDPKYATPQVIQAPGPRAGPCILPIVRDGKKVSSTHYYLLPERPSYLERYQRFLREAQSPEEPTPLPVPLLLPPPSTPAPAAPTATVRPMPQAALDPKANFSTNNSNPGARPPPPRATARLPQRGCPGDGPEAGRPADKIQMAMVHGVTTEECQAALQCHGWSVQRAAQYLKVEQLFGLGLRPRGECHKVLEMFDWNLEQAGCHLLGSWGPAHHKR
Experimental: as §1

ARAF = ARAF (Homo sapiens, UniProt P10398); conditions: single concentration of 1 μM; read-out: percent inhibition of ARAF
Chain of ARAF (P10398 whole entry): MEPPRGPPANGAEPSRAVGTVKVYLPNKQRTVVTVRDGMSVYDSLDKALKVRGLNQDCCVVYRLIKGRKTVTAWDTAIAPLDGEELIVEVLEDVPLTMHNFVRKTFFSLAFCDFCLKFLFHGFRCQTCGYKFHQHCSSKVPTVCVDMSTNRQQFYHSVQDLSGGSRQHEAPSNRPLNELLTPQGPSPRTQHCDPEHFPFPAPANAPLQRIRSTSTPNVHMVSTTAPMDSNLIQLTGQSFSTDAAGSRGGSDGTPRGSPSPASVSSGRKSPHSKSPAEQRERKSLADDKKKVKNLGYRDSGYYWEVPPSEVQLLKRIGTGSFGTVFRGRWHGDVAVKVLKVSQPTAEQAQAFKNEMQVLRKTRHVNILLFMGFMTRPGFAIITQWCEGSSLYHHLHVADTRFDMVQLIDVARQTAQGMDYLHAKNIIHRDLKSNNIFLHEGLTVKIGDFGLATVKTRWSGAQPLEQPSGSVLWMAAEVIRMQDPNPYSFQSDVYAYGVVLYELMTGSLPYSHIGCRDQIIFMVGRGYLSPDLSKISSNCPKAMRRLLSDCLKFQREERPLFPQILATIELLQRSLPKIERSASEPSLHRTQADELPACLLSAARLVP
Experimental: as §1

BRK = BRK (Homo sapiens, UniProt Q13882); conditions: single concentration of 1 μM; read-out: percent inhibition of BRK
Experimental: as §1

BTK = BTK (Homo sapiens, UniProt Q06187); conditions: single concentration of 1 μM; read-out: percent inhibition of BTK
Experimental: as §1

DDR2 = DDR2 (Homo sapiens, UniProt Q16832); conditions: single concentration of 1 μM; read-out: percent inhibition of DDR2
Experimental: as §1

EPHA1 = EPHA1 (Homo sapiens, UniProt P21709); conditions: single concentration of 1 μM; read-out: percent inhibition of EPHA1
Experimental: as §1

EPHB1 = EPHB1 (Homo sapiens, UniProt P54762); conditions: single concentration of 1 μM; read-out: percent inhibition of EPHB1
Experimental: as §1

ERBB2/HER2 = ERBB2/HER2 (Homo sapiens, UniProt P04626); conditions: single concentration of 1 μM; read-out: percent inhibition of ERBB2/HER2
Experimental: as §1

FGFR2 = FGFR2 (Homo sapiens, UniProt P21802); conditions: single concentration of 1 μM; read-out: percent inhibition of FGFR2
Chain of FGFR2 (P21802 22-821): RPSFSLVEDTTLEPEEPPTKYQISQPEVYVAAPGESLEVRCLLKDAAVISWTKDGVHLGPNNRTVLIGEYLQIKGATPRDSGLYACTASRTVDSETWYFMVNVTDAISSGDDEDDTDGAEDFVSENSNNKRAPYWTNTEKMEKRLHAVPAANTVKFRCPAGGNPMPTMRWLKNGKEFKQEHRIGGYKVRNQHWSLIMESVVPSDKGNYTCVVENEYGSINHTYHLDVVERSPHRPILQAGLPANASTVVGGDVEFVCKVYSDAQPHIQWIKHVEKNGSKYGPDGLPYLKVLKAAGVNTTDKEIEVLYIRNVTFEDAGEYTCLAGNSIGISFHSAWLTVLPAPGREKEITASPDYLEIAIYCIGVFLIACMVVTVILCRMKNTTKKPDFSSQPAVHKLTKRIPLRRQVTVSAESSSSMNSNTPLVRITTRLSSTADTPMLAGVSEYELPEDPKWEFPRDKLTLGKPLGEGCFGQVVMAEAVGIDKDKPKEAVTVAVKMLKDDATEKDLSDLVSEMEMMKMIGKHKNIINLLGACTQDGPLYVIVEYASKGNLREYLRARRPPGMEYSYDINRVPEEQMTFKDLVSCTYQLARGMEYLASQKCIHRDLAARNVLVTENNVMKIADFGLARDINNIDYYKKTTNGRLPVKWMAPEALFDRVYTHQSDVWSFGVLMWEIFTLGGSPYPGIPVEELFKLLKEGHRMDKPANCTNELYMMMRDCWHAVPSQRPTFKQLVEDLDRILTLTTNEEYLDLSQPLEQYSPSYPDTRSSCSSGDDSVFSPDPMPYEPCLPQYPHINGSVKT
Experimental: as §1

FGFR3 = FGFR3 (Homo sapiens, UniProt P22607); conditions: single concentration of 1 μM; read-out: percent inhibition of FGFR3
Experimental: as §1

FLT1/VEGFR1 = FLT1/VEGFR1 (Homo sapiens, UniProt P17948); conditions: single concentration of 1 μM; read-out: percent inhibition of FLT1/VEGFR1
Experimental: as §1

FLT4/VEGFR3 = FLT4/VEGFR3 (Homo sapiens, UniProt P35916); conditions: single concentration of 1 μM; read-out: percent inhibition of FLT4/VEGFR3
Experimental: as §1

FMS = FMS (Homo sapiens, UniProt P07333); conditions: single concentration of 1 μM; read-out: percent inhibition of FMS
Chain of FMS (P07333 20-972): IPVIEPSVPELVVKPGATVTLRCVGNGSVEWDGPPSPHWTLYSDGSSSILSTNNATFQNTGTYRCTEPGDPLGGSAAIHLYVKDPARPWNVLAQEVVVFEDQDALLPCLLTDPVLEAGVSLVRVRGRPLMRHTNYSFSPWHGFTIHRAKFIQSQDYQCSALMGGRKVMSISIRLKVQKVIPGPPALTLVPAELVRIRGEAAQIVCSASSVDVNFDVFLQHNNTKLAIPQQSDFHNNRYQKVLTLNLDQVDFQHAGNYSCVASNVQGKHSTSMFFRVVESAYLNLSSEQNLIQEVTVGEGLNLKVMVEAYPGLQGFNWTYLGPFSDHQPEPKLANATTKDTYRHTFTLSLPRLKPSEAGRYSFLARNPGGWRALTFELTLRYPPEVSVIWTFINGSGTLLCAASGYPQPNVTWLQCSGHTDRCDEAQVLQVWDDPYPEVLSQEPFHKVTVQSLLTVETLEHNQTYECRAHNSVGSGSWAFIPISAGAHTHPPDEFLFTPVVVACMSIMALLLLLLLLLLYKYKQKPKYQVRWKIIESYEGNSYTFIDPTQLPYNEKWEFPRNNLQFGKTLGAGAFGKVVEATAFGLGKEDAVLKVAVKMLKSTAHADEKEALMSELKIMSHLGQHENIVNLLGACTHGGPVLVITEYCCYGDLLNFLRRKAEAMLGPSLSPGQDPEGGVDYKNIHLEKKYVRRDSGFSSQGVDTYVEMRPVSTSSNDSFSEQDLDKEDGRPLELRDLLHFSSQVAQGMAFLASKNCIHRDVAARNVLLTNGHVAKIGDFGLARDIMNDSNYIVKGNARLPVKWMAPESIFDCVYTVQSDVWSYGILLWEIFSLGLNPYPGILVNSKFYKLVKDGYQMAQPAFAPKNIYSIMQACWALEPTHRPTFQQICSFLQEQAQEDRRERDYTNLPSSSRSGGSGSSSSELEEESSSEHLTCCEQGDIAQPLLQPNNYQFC
Experimental: as §1

FRK/PTK5 = FRK/PTK5 (Homo sapiens, UniProt P42685); conditions: single concentration of 1 μM; read-out: percent inhibition of FRK/PTK5
Chain of FRK/PTK5 (P42685 whole entry): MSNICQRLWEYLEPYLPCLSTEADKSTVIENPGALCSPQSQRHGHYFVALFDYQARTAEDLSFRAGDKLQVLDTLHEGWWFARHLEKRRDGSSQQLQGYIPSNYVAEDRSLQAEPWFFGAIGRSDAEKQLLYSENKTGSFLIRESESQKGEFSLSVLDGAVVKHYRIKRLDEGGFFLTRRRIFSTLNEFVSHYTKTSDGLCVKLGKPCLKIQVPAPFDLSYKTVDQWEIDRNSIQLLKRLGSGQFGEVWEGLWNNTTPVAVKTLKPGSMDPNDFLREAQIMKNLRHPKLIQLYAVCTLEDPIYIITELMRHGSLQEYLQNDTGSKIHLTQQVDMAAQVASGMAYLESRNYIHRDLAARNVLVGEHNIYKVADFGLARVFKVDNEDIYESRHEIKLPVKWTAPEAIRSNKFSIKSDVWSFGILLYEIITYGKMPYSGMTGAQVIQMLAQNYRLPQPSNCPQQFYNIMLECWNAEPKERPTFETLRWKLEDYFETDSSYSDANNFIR
Experimental: as §1

GCK/MAP4K2 = GCK/MAP4K2 (Homo sapiens, UniProt Q12851); conditions: single concentration of 1 μM; read-out: percent inhibition of GCK/MAP4K2
Experimental: as §1

JAK1 = JAK1 (Homo sapiens, UniProt P23458); conditions: single concentration of 1 μM; read-out: percent inhibition of JAK1
Experimental: as §1

LYN B = LYN B (Homo sapiens, UniProt P07948); conditions: single concentration of 1 μM; read-out: percent inhibition of LYN B
Chain of LYN B (P07948 1-491 isoform P07948-2): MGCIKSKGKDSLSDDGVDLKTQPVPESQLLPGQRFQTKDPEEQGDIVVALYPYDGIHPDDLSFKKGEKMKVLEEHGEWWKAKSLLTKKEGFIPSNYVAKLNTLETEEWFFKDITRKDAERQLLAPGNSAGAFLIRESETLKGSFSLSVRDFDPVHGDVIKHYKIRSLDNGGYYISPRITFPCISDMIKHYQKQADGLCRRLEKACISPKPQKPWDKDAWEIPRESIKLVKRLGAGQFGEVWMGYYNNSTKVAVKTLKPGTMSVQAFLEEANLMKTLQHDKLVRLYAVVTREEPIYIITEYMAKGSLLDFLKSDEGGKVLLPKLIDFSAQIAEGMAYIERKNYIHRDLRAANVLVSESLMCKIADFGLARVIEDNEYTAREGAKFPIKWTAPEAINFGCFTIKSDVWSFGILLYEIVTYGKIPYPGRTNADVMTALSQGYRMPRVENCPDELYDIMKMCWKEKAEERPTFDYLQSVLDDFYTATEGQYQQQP
Experimental: as §1

P38b/MAPK11 = P38b/MAPK11 (Homo sapiens, UniProt Q15759); conditions: single concentration of 1 μM; read-out: percent inhibition of P38b/MAPK11
Experimental: as §1

PDGFRa = PDGFRa (Homo sapiens, UniProt P16234); conditions: single concentration of 1 μM; read-out: percent inhibition of PDGFRa
Experimental: as §1

SRPK1 = SRPK1 (Homo sapiens, UniProt Q96SB4); conditions: single concentration of 1 μM; read-out: percent inhibition of SRPK1
Chain of SRPK1 (Q96SB4 whole entry): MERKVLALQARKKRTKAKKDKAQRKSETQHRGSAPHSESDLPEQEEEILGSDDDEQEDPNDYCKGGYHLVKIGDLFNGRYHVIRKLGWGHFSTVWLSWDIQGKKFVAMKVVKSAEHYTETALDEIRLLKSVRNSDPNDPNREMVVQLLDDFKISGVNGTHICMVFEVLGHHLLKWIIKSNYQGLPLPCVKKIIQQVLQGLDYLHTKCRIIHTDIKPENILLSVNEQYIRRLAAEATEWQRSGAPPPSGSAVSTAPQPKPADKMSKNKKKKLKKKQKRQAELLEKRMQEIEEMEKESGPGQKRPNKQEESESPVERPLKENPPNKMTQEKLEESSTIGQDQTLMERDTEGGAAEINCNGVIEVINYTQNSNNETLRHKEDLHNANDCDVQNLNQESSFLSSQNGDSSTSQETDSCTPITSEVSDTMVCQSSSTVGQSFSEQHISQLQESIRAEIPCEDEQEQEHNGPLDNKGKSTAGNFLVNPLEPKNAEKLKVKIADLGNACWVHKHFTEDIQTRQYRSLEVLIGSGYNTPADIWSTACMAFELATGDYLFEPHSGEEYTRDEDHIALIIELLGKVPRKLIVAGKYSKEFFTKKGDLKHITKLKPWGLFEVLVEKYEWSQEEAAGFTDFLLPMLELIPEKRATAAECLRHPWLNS
Experimental: as §1

Measured: inhibition at 1 µM

Cc1ccc(Nc2ncc3cc(-c4cc(NC(=O)c5cccc(C(F)(F)F)c5)ccc4C)ncc3n2)cn1 [Compound No. 4, N-(4-methyl-3-(2-((6-methylpyridin-3-yl)amino)pyrido[3,4-d]pyrimidin-6-yl)phenyl)-3-(trifluoromethyl)benzamide]
≥ 70%: all assays above

From patent US20230120564A1, “PYRIDO[3,4-D]PYRIMIDINE DERIVATIVE AND THERAPEUTIC PHARMACEUTIC COMPOSITION COMPRISING SAME” (KOREA INSTITUTE OF SCIENCE AND TECHNOLOGY, priority 2020, published 2023)
